Assay results: patent US20220098525A1, “LAUNDRY DETERGENT” (Conopco, Inc., d/b/a UNILEVER, priority 2019, published 2022)
Like-named read-outs stand apart in the source and are kept apart here.

Columns and labels:
Type in all cases: physicochemical
[1] = hydrolysis in the region of pH 4 to 10
[2] = dissolution of dye in water for pKa measurement; conditions: approximately 2×10^−5 mol L^−1 in water, conditions analogous to the reference dye
Experimental: (§1) pKa values (acid dissociation constant) were measured for the reference dye by dissolving approximately 2×10^−5 mol L^−1 of the dye in water then varying the pH from 9.6 to 1.9 and observing the changes in the UV-VIS spectrum at 570 nm. The pKa values are higher than expected for a free —COOH group which would be 3 to 4 and is attributed to the effect of the alkyl chains.

[3] = pKa measured by pH variation and UV-VIS spectrum at 570 nm; conditions: water, pH 4, approximately 2×10^−5 mol L^−1 dye in water, pH varied 9.6 to 1.9, UV-VIS at 570 nm; dual pKa fit for the 2 -COOH groups
Experimental: as §1

Row | hydrolysis [1] | hydrolysis ([1]; listed as inventive compound) | dissolution in water [2] | pKa [3] | Structure (SMILES)
1 | not observed | resistant to hydrolysis | did not dissolve |  | C=COCCOCCN(CCOCCO)c1ccc(/N=N/c2sc(C#N)c(C)c2C#N)c(C)c1 [inventive]
2 | observed |  |  | 7.5 | CCCCC/C=C/CC(CC(=O)OCCOCCN(CCOCCOC(=O)CC(C/C=C/CCCCC)C(=O)O)c1ccc(/N=N/c2sc(C#N)c(C)c2C#N)c(C)c1)C(=O)O (centres unmarked) [reference, reference compound]
